Where two headings read alike, the source gives them in different places.
Target: T1, P2Y12 receptor (Homo sapiens, UniProt Q9H244)
T1 construct: expressed in transfected cells; host or cells: CHO cells (membranes)
Assay: Functional inhibition of 2-Me-S-ADP induced P2Y12 signalling (35S-GTPγS binding, membranes from P2Y12 transfected CHO-cells)
Type: biochemical
Description: Functional inhibition of- the P2Y12 receptor can be measured by in vitro assays using cell membranes from P2Y12 transfected CHO-cells, the methodology is indicated below.
Functional inhibition of 2-Me-S-ADP induced P2Y12 signalling: 5 μg of membranes were diluted in 200 μl of 200 mM NaCl, 1 mM MgCl2, 50 mM HEPES (pH 7.4), 0.01% BSA, 30 μg/ml saponin and 10 μM GDP. To this was added an EC80 concentration of agonist (2-methyl-thio-adenosine diphosphate), the required concentration of test compound and 0.1 μCi ^35S-GTPγS. The reaction was allowed to proceed at 30° C. for 45 min. Samples were then transferred on to GF/B filters using a cell harvester and washed with wash buffer (50 mM Tris (pH 7.4), 5 mM MgCl2, 50 mM NaCl). Filters were then covered with scintilant and counted for the amount of ^35S-GTPγS retained by the filter. Maximum activity was that determined in the presence of the agonist and minimum activity in the absence of the agonist following subtraction of the value determined for non-specific activity. The effect of compounds at various concentrations was plotted according to the equation
y=A+((B−A)/(1+((C/x)̂D)))
and IC50 estimated where A is the bottom plateau of the curve i.e. the final minimum y value B is the top of the plateau of the curve i.e. the final maximum y value C is the x value at the middle of the curve. This represents the log EC50 value when A+B=100 D is the slope factor. x is the original known x values. Y is the original known y values.

[1] = 35S-GTPγS, EC80 of 2-methyl-thio-adenosine diphosphate, P2Y12 CHO membranes, value given in each example, read-out: GTPγS(IC50 μM)

T1 sequence (Q9H244 whole entry): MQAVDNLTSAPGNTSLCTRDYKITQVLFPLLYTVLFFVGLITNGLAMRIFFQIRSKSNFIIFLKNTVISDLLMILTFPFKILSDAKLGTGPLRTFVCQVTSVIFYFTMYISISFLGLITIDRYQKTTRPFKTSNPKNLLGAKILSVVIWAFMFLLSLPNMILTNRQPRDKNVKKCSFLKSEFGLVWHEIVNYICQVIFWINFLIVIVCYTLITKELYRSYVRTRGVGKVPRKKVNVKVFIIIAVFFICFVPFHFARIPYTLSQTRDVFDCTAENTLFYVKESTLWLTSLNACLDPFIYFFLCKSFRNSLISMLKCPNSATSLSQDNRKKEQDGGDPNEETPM

N#Cc1cc(C(=O)C2CC2)c(CN2CCCC2=O)nc1N1CCC(C(=O)NS(=O)(=O)Cc2ccccc2)CC1 [Example 8, N-(benzylsulfonyl)-1-{3-cyano-5-(cyclopropylcarbonyl)-6-[(2-oxopyrrolidin-1-yl)methyl]pyridin-2-yl}piperidine-4-carboxamide]
IC50 [1]: 0.032 µM

CCC(=O)c1cc(C#N)c(N2CCC(C(=O)NS(=O)(=O)CC3CCCC3)CC2)nc1CN1CCCC1=O [Example 12, 1-{3-Cyano-6-[(2-oxopyrrolidin-1-yl)methyl]-5-propionylpyridin-2-yl}-N-[(cyclopentylmethyl)sulfonyl]piperidine-4-carboxamide]
IC50 [1]: 0.328 µM | IC50 (functional inhibition of 2-Me-S-ADP induced P2Y12 signalling assay, EC80 of agonist, summary table in Pharmacological Data, read-out: IC50): 0.13 µM

CCCCC(=O)c1cc(C#N)c(N2CCC(C(=O)NS(=O)(=O)Nc3ccc(F)cc3)CC2)nc1CN1CCCC1=O [Example 46, 1-{3-cyano-6-[(2-oxopyrrolidin-1-yl)methyl]-5-pentanoylpyridin-2-yl}-N-{[(4-fluorophenyl)amino]sulfonyl}piperidine-4-carboxamide]
IC50 [1]: 0.021 µM

N#Cc1cc(C(=O)CCC(F)(F)F)c(CN2CCCC2=O)nc1N1CCC(C(=O)NS(=O)(=O)Cc2ccccc2)CC1 [Example 58, N-(benzylsulfonyl)-1-{3-cyano-6-[(2-oxopyrrolidin-1-yl)methyl]-5-(4,4,4-trifluorobutanoyl)pyridin-2-yl}piperidine-4-carboxamide]
IC50 [1]: 0.084 µM

CCCC(=O)c1cc(C#N)c(N2CCC(C(=O)NS(=O)(=O)CC3CCCC3)CC2)nc1CN1CCCC1=O [Example 7, 1-{5-Butyryl-3-cyano-6-[(2-oxopyrrolidin-1-yl)methyl]pyridin-2-yl}-N-[(cyclopentylmethyl)sulfonyl]piperidine-4-carboxamide]
IC50 [1]: 0.028 µM

C=CCCC(=O)c1cc(Cl)c(N2CCC(C(=O)NS(=O)(=O)N(C)c3ccc(F)cc3)CC2)nc1CN1CCCC1=O [Example 50, 1-{3-chloro-6-[(2-oxopyrrolidin-1-yl)methyl]-5-pent-4-enoylpyridin-2-yl}-N-{[(4-fluorophenyl)(methyl)amino]sulfonyl}piperidine-4-carboxamide]
IC50 [1]: 0.167 µM

CCCCC(=O)c1cc(C#N)c(N2CCC(C(=O)NS(=O)(=O)CC3CCCCC3)CC2)nc1CN1CCCC1=O [Example 48, 1-{3-cyano-6-[(2-oxopyrrolidin-1-yl)methyl]-5-pentanoylpyridin-2-yl}-N-[(cyclohexylmethyl)sulfonyl]piperidine-4-carboxamide]
IC50 [1]: 0.023 µM

CCCC(=O)c1cc(C#N)c(N2CCC(C(=O)NS(=O)(=O)Cc3ccccc3)CC2)nc1CN1CCCC1=O [Example 2, N-(Benzylsulfonyl)-1-{5-butyryl-3-cyano-6-[(2-oxopyrrolidin-1-yl)methyl]pyridin-2-yl}piperidine-4-carboxamide]
IC50 [1]: 0.022 µM

C=CCCC(=O)c1cc(C#N)c(N2CCC(C(=O)NS(=O)(=O)N(C)c3ccc(F)cc3)CC2)nc1CN1CCCC1=O [Example 28, 1-{3-cyano-6-[(2-oxopyrrolidin-1-yl)methyl]-5-pent-4-enoylpyridin-2-yl}-N-{[(4-fluorophenyl)(methyl)amino]sulfonyl}piperidine-4-carboxamide]
IC50 [1]: 0.022 µM

C=CCCC(=O)c1cc(C#N)c(N2CCC(C(=O)NS(=O)(=O)N(C)c3ccccc3)CC2)nc1CN1CCCC1=O [Example 29, 1-{3-cyano-6-[(2-oxopyrrolidin-1-yl)methyl]-5-pent-4-enoylpyridin-2-yl}-N-{[methyl(phenyl)amino]sulfonyl}piperidine-4-carboxamide]
IC50 [1]: 0.013 µM

CCCC(=O)c1cc(C#N)c(N2CCC(C(=O)NS(=O)(=O)N(C)c3ccccc3)CC2)nc1CN1CCCC1=O [Example 34, 1-{5-Butyryl-3-cyano-6-[(2-oxopyrrolidin-1-yl)methyl]pyridin-2-yl}-N-{[methyl(phenyl)amino]sulfonyl}piperidine-4-carboxamide]
IC50 [1]: 0.012 µM

CC(C)C(=O)c1cc(C#N)c(N2CCC(C(=O)NS(=O)(=O)CC3CCCC3)CC2)nc1CN1CCCC1=O [Example 16, 1-{3-Cyano-5-isobutyryl-6-[(2-oxopyrrolidin-1-yl)methyl]pyridin-2-yl}-N-[(cyclopentylmethyl)sulfonyl]piperidine-4-carboxamide]
IC50 [1]: 0.396 µM

N#Cc1cc(C(=O)CCC(F)(F)F)c(CN2CCCC2=O)nc1N1CCC(C(=O)NS(=O)(=O)Cc2ccc(F)cc2F)CC1 [Example 42, 1-{3-Cyano-6-[(2-oxopyrrolidin-1-yl)methyl]-5-(4,4,4-trifluorobutanoyl)pyridin-2-yl}-N-[(2,4-difluorobenzyl)sulfonyl]piperidine-4-carboxamide]
IC50 [1]: 0.016 µM

CCCCC(=O)c1cc(C#N)c(N2CCC(C(=O)NS(=O)(=O)C(C)c3ccccc3)CC2)nc1CN1CCCC1=O (stereo not drawn) [Example 61, 1-{3-cyano-6-[(2-oxopyrrolidin-1-yl)methyl]-5-pentanoylpyridin-2-yl}-N-[(1-phenylethyl)sulfonyl]piperidine-4-carboxamide]
IC50 [1]: 0.033 µM

CCCCC(=O)c1cc(C#N)c(N2CCC(C(=O)NS(=O)(=O)Cc3ccc(C(C)C)cc3)CC2)nc1CN1CCCC1=O [Example 49, 1-{3-cyano-6-[(2-oxopyrrolidin-1-yl)methyl]-5-pentanoylpyridin-2-yl}-N-[(4-isopropylbenzyl)sulfonyl]piperidine-4-carboxamide]
IC50 [1]: 0.031 µM

CCC(=O)c1cc(C#N)c(N2CCC(C(=O)NS(=O)(=O)Cc3ccc(C)cc3)CC2)nc1CN1CCCC1=O [Example 11, 1-{3-cyano-6-[(2-oxopyrrolidin-1-yl)methyl]-5-propionylpyridin-2-yl}-N-[(4-methylbenzyl)sulfonyl]piperidine-4-carboxamide]
IC50 [1]: 0.037 µM

CCCC(=O)c1cc(C#N)c(N2CCC(C(=O)NS(=O)(=O)CC3CCCCC3)CC2)nc1CN1CCCC1=O [Example 36, 1-{5-Butyryl-3-cyano-6-[(2-oxopyrrolidin-1-yl)methyl]pyridin-2-yl}-N-[(cyclohexylmethyl)sulfonyl]piperidine-4-carboxamide]
IC50 [1]: 0.014 µM

CCCCC(=O)c1cc(Cl)c(N2CCC(C(=O)NS(=O)(=O)CC3CCCC3)CC2)nc1CN1CCCC1=O [Example 54, 1-{3-chloro-6-[(2-oxopyrrolidin-1-yl)methyl]-5-pentanoylpyridin-2-yl}-N-[(cyclopentylmethyl)sulfonyl]piperidine-4-carboxamide]
IC50 [1]: 0.938 µM

CCCC(=O)c1cc(C#N)c(N2CCC(C(=O)NS(=O)(=O)Cc3ccc(C)cc3)CC2)nc1CN1CCCC1=O [Example 5, 1-{5-butyryl-3-cyano-6-[(2-oxopyrrolidin-1-yl)methyl]pyridin-2-yl}-N-[(4-methylbenzyl)sulfonyl]piperidine-4-carboxamide]
IC50 [1]: 0.009 µM

CCCC(=O)c1cc(Cl)c(N2CCC(C(=O)NS(=O)(=O)Cc3ccc(F)cc3F)CC2)nc1CN1CCCC1=O [Example 53, 1-{5-butyryl-3-chloro-6-[(2-oxopyrrolidin-1-yl)methyl]pyridin-2-yl}-N-[(2,4-difluorobenzyl)sulfonyl]piperidine-4-carboxamide]
IC50 [1]: 0.032 µM

CC(C)C(=O)c1cc(C#N)c(N2CCC(C(=O)NS(=O)(=O)Cc3ccccc3)CC2)nc1CN1CCCC1=O [Example 15, N-(Benzylsulfonyl)-1-{3-cyano-5-isobutyryl-6-[(2-oxopyrrolidin-1-yl)methyl]pyridin-2-yl}piperidine-4-carboxamide]
IC50 [1]: 0.106 µM

CCCCC(=O)c1cc(C#N)c(N2CCC(C(=O)NS(=O)(=O)N(C)c3ccc(F)cc3)CC2)nc1CN1CCCC1=O [Example 21, 1-{3-Cyano-6-[(2-oxopyrrolidin-1-yl)methyl]-5-pentanoylpyridin-2-yl}-N-{[(4-fluorophenyl)(methyl)amino]sulfonyl}piperidine-4-carboxamide]
IC50 [1]: 0.023 µM

CCc1cnc(-c2cc(C#N)c(N3CCC(C(=O)NS(=O)(=O)N(C)c4ccc(F)cc4)CC3)nc2CN2CCCC2=O)o1 [Example 62, 1-{3-cyano-5-(5-ethyl-1,3-oxazol-2-yl)-6-[(2-oxopyrrolidin-1-yl)methyl]pyridin-2-yl}-N-{[(4-fluorophenyl)(methyl)amino]sulfonyl}piperidine-4-carboxamide]
IC50 [1]: 0.03 µM

CN(c1ccc(F)cc1)S(=O)(=O)NC(=O)C1CCN(c2nc(CN3CCCC3=O)c(C(=O)C3CC3)cc2C#N)CC1 [Example 25, 1-{3-Cyano-5-(cyclopropylcarbonyl)-6-[(2-oxopyrrolidin-1-yl)methyl]pyridin-2-yl}-N-{[(4-fluorophenyl)(methyl)amino]sulfonyl}piperidine-4-carboxamide]
IC50 [1]: 0.026 µM

CCc1cnc(-c2cc(Cl)c(N3CCC(C(=O)NS(=O)(=O)Cc4ccccc4)CC3)nc2CN2CCCC2=O)o1 [Example 65, N-(benzylsulfonyl)-1-{3-chloro-5-(5-ethyl-1,3-oxazol-2-yl)-6-[(2-oxopyrrolidin-1-yl)methyl]pyridin-2-yl}piperidine-4-carboxamide]
IC50 [1]: 0.17 µM

CCCCC(=O)c1cc(C#N)c(N2CCC(C(=O)NS(=O)(=O)Cc3ccccc3)CC2)nc1CN1CCCC1=O [Example 18, N-(Benzylsulfonyl)-1-{3-cyano-6-[(2-oxopyrrolidin-1-yl)methyl]-5-pentanoylpyridin-2-yl}piperidine-4-carboxamide]
IC50 [1]: 0.013 µM

Source: US20090018166A1, “New Pyridine Analogues X 161” (ASTRAZENECA AB, priority 2007, published 2009)
